These results are taken from US8314082B2, “Stilbene derivatives for ADP-ribosyl cyclase inhibitors” (Industrial Cooperation Foundation Chonbuk National …, priority 2006, dated 2012).

Where two headings read alike, the source gives them in different places.

Test [1] has as its system Ang II induced cADPR production in murine mesangial cells (MMCs). Briefly: Ang II-induced intracellular cADPR concentration in MMCs. It is filed as cell-based. The conditions noted are these: Mus musculus, Mesangial cell, read-out: IC50([CADPR]i, uM) (means ± SEM). On the procedure: [cADPR]i was measured using a cyclic enzymatic assay as described previously [Graeff et al., Biochem. J. (2002)361:379-84]. Aplysia californica ADPR-cyclase was purified from […] according to the method described [Lee et al., Cell Regul. (1991)2:203-9]. Briefly, MMCs were treated with 0.3 ml of 0.6 M perchloric acid under sonication after Ang II treatment. Precipitates were removed by centrifugation at 20,000×g for 10 min. Perchloric acid was removed by mixing the aqueous sample with a solution containing 3 volumes of 1,1,2-trichlorotrifluoroethane to 1 volume of tri-n-octlyamine. After centrifugation for 10 min at 1500×g, the aqueous layer was collected and neutralized with 20 mM sodium phosphate (pH 8). To remove all contaminating nucleotides, the samples were incubated with the following hydrolytic enzymes overnight at 37° C.: 0.44 unit/ml nucleotide pyrophosphatase, 12.5 units/ml alkaline phosphatase, 0.0625 unit/ml NADase, and 2.5 mM MgCl2 in 20 mM sodium phosphate buffer (pH 8.0). Enzymes were removed by filtration using Centricon-3 filters. To convert cADPR to NAD^+, the samples (0.1 ml/tube) were incubated with […] of a cycling reagent containing 0.3 mg/ml Aplysia ADPR-cyclase, 30 mM nicotinamide, and 100 mM sodium phosphate (pH 8) at room temperature for 30 min. The samples were further incubated with the cycling reagent (0.1 ml) containing 2% ethanol, […] alcohol dehydrogenase, 20 mM resazurin, 10 mg/ml diaphorase, 10 mM riboflavin 5′-phosphate, 10 mM nicotinamide, 0.1 mg/ml BSA, and 100 mM sodium phosphate (pH 8.0) for 2 h at room temperature. An increase in the resorufin fluorescence was measured at 544 nm excitation and 590 nm emission using a fluorescence plate reader (Molecular Devices Corp., Spectra-Max GEMINI). Various known concentrations of cADPR were also included in the cycling reaction to generate a standard curve. […] Production of cADPR as well as later sustained Ca^2+ signal in response to Ang II was inhibited with different efficacy by these small molecules (Table 1). […] The order of IC50 was 4,4′-DAHB>resveratrol>azobenzene=piceatannol>2,2′-DAHB.

For test [2], the system named is Ang II induced [Ca^2+]i increase in murine mesangial cells (MMCs). In words: Ang II-mediated [Ca2+]i increase in MMCs. The conditions noted are these: Mus musculus, Mesangial cell, later sustained Ca2+ signal induced by 150 nM Ang II, 300 s, read-out: IC50([Ca^2+]i, uM) (means ± SEM). It is filed as cell-based. On the procedure: Changes in [Ca^2+]i in MMCs were determined as described previously [Kim et al., Exp. Mol. Med. (2006)38:535-45]. Briefly, MMCs cultured on confocal dishes for 48 h at a concentration of 10^4 cells/dish were washed with Hank's balanced salt solution (HBSS) (2 mM CaCl2, 145 mM NaCl, 5 mM KCl, 1 mM MgCl2, 5 mM D-glucose, and 20 mM HEPES, pH 7.3) and then loaded with […] Fluo 3-AM (Molecular Probe, Eugene, Oreg.). Changes in Ca^2+ fluorescence were determined at 488 nm/530 nm (excitation/emission) by air-cooled argon laser system. [Ca^2+]i was calculated using a Kd of 325 nM for Fluo 3-AM by the method of Tsien et al. (1982).

The subject of test [3] is STZ diabetic mice. Briefly: Diabetic nephropathy in STZ diabetes mouse model. In kind it is in vivo. Particulars: 45 μg/kg i.p. once a day for 6 weeks, mean SE, n = 6. On the procedure:
Male mice, weighing 20 25 g, were made diabetic by a single intravenous injection of STZ (65 mg/kg body weight) in 0.05 M citrate buffer (pH 4.8). At the same day, the control mice were injected with the citrate buffer. After 2 days, induction of diabetes was confirmed by tail blood glucose level measurement by using the LifeScan One Touch glucometer (Johnson & Johnson). The diabetic mice (>16 mM blood glucose) were randomly divided into two groups; 6 mice per group treated with vehicle (0.1% DMSO in saline, 100 μl) or DHAB (45 μg/kg body weight in 0.1% DMSO in saline, 100 μl) and resveratrol (45 μg/kg body weight in 0.1% DMSO in saline, 100 μl) administered by intraperitoneal injection once a day for 6 weeks. The control mice were 6 mice per group treated with the vehicle. On day 39, the mice were detained in individual metabolic cages for 24 h for urine collection. On day 42, the mice were anesthetized with diethyl ether, and blood samples were taken from the abdominal aorta. Bilateral kidneys were rapidly removed and weighed. Urine was gravimetrically collected, and urinary albumin concentrations were determined with an enzyme-linked immunosorbent assay using a murine microalbuminuria kit (Albuwell; Exocell, Philadelphia, Pa.). Urine and serum creatinine levels were measured using the QuantiChrom Creatinine Assay Kit (BioAssay Systems, Hayward, Calif.), following the manufacturer's protocol.

[4] abbreviates: cADPR production induced by 150 nM Ang II, 90 s, MMCs.

One may read the IC50 as the point on the concentration scale where inhibition reaches its midpoint.

On to `Oc1cc(O)cc(/C=C/c2ccc(O)c(O)c2)c1` [Piceatannol, 3,5,3′,4′-tetrahydroxy-trans-stilbene], for which the IC50 turned out to be 8.9 ± 1.5 µM in test [1] (setting [4]) and 10 ± 1.7 µM in test [2].
On to `c1ccc(N=Nc2ccccc2)cc1` [Azobenzene], for which the figures for the IC50 in test [1] and in test [2] were 13 ± 2.1 µM and 10 ± 1.1 µM, respectively.
`Oc1ccc(/C=C/c2cc(O)cc(O)c2)cc1` [Resveratrol, 3,5,4′-trihydroxy-trans-stilbene] gave a Urine output in test [3] (24 h metabolic cage) of 2.55 ± 2.09 mL/day. In test [3], the “Body Weight” value came out at 22.6 ± 0.70 g, the Food intake worked out at 3.12 ± 0.79 g, the Plasma glucose was 441 ± 48.7 mg/dL and the “Urinary Albumin” value worked out at 2.97 ± 2.11 µg/day. This molecule registered a Water intake in test [3] of 5.67 ± 3.21 mL. For the same molecule, the IC50 in test [1] (setting [4]) was 5.5 ± 0.5 µM. Besides, the IC50 in test [2] was found to be 5 ± 0.8 µM.
